Measured values published in patent US11426374B2, “Modification of the pH and other physical properties of oxaloacetic acid to allow for enhanced stability and multiple delivery systems” (Terra Biological LLC, priority 2015, dated 2022).
Entries after “also recorded” stand apart in the source; their conditions may differ.

Experiments:
[1] = Lozenge of oxaloacetic acid with a test substance, stability in open environment for one week; conditions: for decomposition of oxaloacetic acid compounded with the ingredient and compressed into a lozenge: examination over a period of one week; for effective way of increasing the pH without degrading the oxaloacetic acid: pH modifier combined with oxaloacetic acid
Excerpt: The Applicant set out on a path of discovery to ascertain what compounds would be stable with oxaloacetic acid—not just for pH modification, but for other physical properties necessary for various delivery systems, such as color stabilization, lozenge dissolve time, lozenge friability, taste, lozenge release from the tablet mold, flow agents, and bulking agents in addition to pH modification. Preparations of oxaloacetic acid was compounded with various ingredients and compressed into a lozenge for examination over a period of one week.
A lozenge is created consisting of 100 mg oxaloacetic acid, and 100 mg of a test substance. The powders are compressed in a tablet mold and released. Each test tablet is placed on a cardboard for one week to ascertain stability in an open environment, such as an open bottle.
The procedure in Example 1 was followed, but with the following individual modifiers to oxaloacetic acid: • Calcium Carbonate (pH Modifier) • Erythitol (Taste Modifier) • Dicalcium Phosphate dihydrate (pH Modifier and lozenge binder) • Vegetable Steric Acid (Release Agent) • Ascorbyl Palmitate (Release Agent)

[2] = oxaloacetic acid with anhydrous NaOH or KOH or both
[3] = Yoshikawa 1968; Cash 2013; room temperature for the sodium salt; cited from earlier work
[4] = pH of solution created by oxaloacetic acid delivered to the mouth; format: physicochemical; conditions: delivered to the mouth in powder or lozenge form
Excerpt: Other methods of delivery are transdermal patches, sublingual lozenges, buccal lozenges, inhalation preparations and anal or vaginal suppositories. These methods of delivery can provide higher percentages of the given oxaloacetate to the blood stream for distribution to various organs, and provide the oxaloacetate quicker than the oral route. These delivery methods face a problem with the acidity of oxaloacetic acid. As an example of this, oxaloacetic acid delivered to the mouth in powder or lozenge form creates a solution at a pH of approximately 2.3. This low pH degrades the enamel on the teeth, and provides a large challenge to continued long-term use of oxaloacetate in sublingual lozenges and buccal lozenges. The effect on the teeth is apparent after just 100 mg oxaloacetate is taken either sublingually or via buccal lozenge. The low pH also causes a painful burning sensation in the lungs if inhaled. Vaginal and anal suppositories are also uncomfortable at low pH. Transdermal patches at low pH are also uncomfortable.

Compound	decomposition of oxaloacetic acid compounded with the ingredient and compressed into a lozenge [1]	also measured
CCCCCCCCCCCCCCCC(=O)OC[C@H](O)[C@H]1OC(=O)C(O)=C1O [Ascorbyl Palmitate]	effective	–
O=C([O-])[O-].[Ca+2] [Calcium Carbonate]	effective	effective way of increasing the pH without degrading the oxaloacetic acid [1]: effective
O=P([O-])([O-])O.[Ca+2] [Calcium Phosphate Dibasic]	rapid decomposition	–
O=C(O)CC(O)(CC(=O)O)C(=O)O [Citric Acid]	rapid decomposition	–
O.O.O=P([O-])([O-])O.[Ca+2] [Dicalcium Phosphate dihydrate]	effective	–
OC[C@@H](O)[C@@H](O)CO [Erythitol]	effective	–
[K+].[OH-] [KOH, potassium hydroxide]	rapid decomposition	degradation of sublingual tablets after manufacture [2]: degraded within a few days; effective way of increasing the pH without degrading the oxaloacetic acid [1]: not effective
[Mg+2].[OH-].[OH-] [Magnesium Hydroxide]	rapid decomposition	–
[O]=[Mg] [Magnesium Oxide]	rapid decomposition	–
[Cl-].[Na+] [NaCl]	rapid decomposition	–
[Na+].[OH-] [NaOH, sodium hydroxide]	rapid decomposition	–
O=C([O-])O.[K+] [Potassium Bicarbonate]	rapid decomposition	–
O=C([O-])CC(O)(CC(=O)[O-])C(=O)[O-].[K+].[K+].[K+] [Potassium Citrate]	rapid decomposition	–
O=C([O-])O.[Na+] [Sodium bicarbonate]	rapid decomposition	effective way of increasing the pH without degrading the oxaloacetic acid [1]: not effective
OC[C@H]1O[C@@](CO)(O[C@H]2O[C@H](CO)[C@@H](O)[C@H](O)[C@H]2O)[C@@H](O)[C@@H]1O [Table sugar]	rapid decomposition	–
[O]=[Ti]=[O] [TiO2]	rapid decomposition	–
CCCCCCCCCCCCCCCCCC(=O)O [Vegetable Steric Acid]	effective	–
OC[C@@H](O)[C@H](O)[C@@H](O)CO [Xylitol]	rapid decomposition; also recorded: did not work well	–
O=C(O)CC(=O)C(=O)O [oxaloacetic acid]	–	stability [3]: not stable at all; pH of solution [4]: approximately 2.3
O=C([O-])CC(=O)C(=O)O.[Na+] [sodium oxaloacetate]	–	stability [3]: not stable, and quickly degrades at room temperature
Magnesium Stearate	rapid decomposition	–
Silicon Dioxide	rapid decomposition	–
